In patent US20080096967A1, “Formulations for Injection of Catecholic Butanes, Including Ndga Compounds, Into Animals” (priority 2005, published 2008):

Assay: M4N stability in HP-β-CD/PEG 300 buffer solutions at 60° C. (RP-HPLC, pH)
Assay type: physicochemical
Details: for M4N concentration (stability): 25% PEG300
Description: The stability of 10 mg/mL M4N (prepared in a ratio of 75:25 40% HP-β-CD: 40 mg/mL M4N PEG 300) in 15 mM buffer solutions was evaluated following incubation at 60° C.
2.0 g HP-β-CD was weighed into 5 mL volumetric flasks on an OHAUS Analytical Plus Balance. 1 mL of a 100 mM buffer solution was added to each flask. Each sample was q.s. to 5 mL with WFI.
750 μL 40% HP-β-CD buffered solution was placed in 1.5 mL polypropylene microtubes. […] After gentle inversion of the sample tubes, the pH of each solution was measured using a Orion, Model 420A pH meter. An initial aliquot was removed for RP-HPLC analysis. Test samples were then placed in a Precision 60° C. incubator. The M4N stability was evaluated by RP-HPLC. At each time point, the samples were centrifuged for 2 minutes at 13,000 rpm to pellet any solid M4N.

COc1ccc(C[C@@H](C)[C@@H](C)Cc2ccc(OC)c(OC)c2)cc1OC [Formulation M4N, meso-1,4-bis(3,4-dimethoxyphenyl)-2,3-dimethylbutane]
10.1 mg/mL: M4N concentration (stability) (15 mM Acetate, pH 6, 30% HP-β-CD, 2 days at 60° C.) | M4N concentration (stability) (15 mM Borate, pH 10, 30% HP-β-CD, 2 days at 60° C.) | M4N concentration (stability) (15 mM Phosphate, pH 3, 30% HP-β-CD, 2 days at 60° C.) | M4N concentration (stability) (15 mM Phosphate, pH 4, 30% HP-β-CD, 2 days at 60° C.) | M4N concentration (stability) (WFI, 30% HP-β-CD, 2 days at 60° C.)
9.7 mg/mL: M4N concentration (stability) (15 mM Acetate, pH 5, 30% HP-β-CD, 10 days at 60° C.) | M4N concentration (stability) (15 mM Acetate, pH 6, 30% HP-β-CD, 6 days at 60° C.) | M4N concentration (stability) (15 mM Acetate, pH 6, 30% HP-β-CD, 10 days at 60° C.) | M4N concentration (stability) (15 mM Borate, pH 10, 30% HP-β-CD, 6 days at 60° C.) | M4N concentration (stability) (15 mM Phosphate, pH 3, 30% HP-β-CD, 10 days at 60° C.) | M4N concentration (stability) (15 mM Phosphate, pH 4, 30% HP-β-CD, 10 days at 60° C.) | M4N concentration (stability) (15 mM Phosphate, pH 7, 30% HP-β-CD, 6 days at 60° C.) | M4N concentration (stability) (15 mM Phosphate, pH 7, 30% HP-β-CD, 10 days at 60° C.) | M4N concentration (stability) (15 mM Phosphate, pH 7, 30% HP-β-CD, 14 days at 60° C.) | M4N concentration (stability) (15 mM Phosphate, pH 8, 30% HP-β-CD, 6 days at 60° C.) | M4N concentration (stability) (15 mM Phosphate, pH 9, 30% HP-β-CD, 6 days at 60° C.) | M4N concentration (stability) (15 mM Phosphate, pH 9, 30% HP-β-CD, 14 days at 60° C.) | M4N concentration (stability) (WFI, 30% HP-β-CD, 10 days at 60° C.)
9.9 mg/mL: M4N concentration (stability) (WFI, 30% HP-β-CD, 6 days at 60° C.)
9.6 mg/mL: M4N concentration (stability) (15 mM Acetate, pH 5, 30% HP-β-CD, 6 days at 60° C.) | M4N concentration (stability) (15 mM Acetate, pH 5, 30% HP-β-CD, 14 days at 60° C.) | M4N concentration (stability) (15 mM Acetate, pH 6, 30% HP-β-CD, 14 days at 60° C.) | M4N concentration (stability) (15 mM Borate, pH 10, 30% HP-β-CD, 10 days at 60° C.) | M4N concentration (stability) (15 mM Borate, pH 10, 30% HP-β-CD, 14 days at 60° C.) | M4N concentration (stability) (15 mM Phosphate, pH 3, 30% HP-β-CD, 6 days at 60° C.) | M4N concentration (stability) (15 mM Phosphate, pH 3, 30% HP-β-CD, 14 days at 60° C.) | M4N concentration (stability) (15 mM Phosphate, pH 4, 30% HP-β-CD, 6 days at 60° C.) | M4N concentration (stability) (15 mM Phosphate, pH 4, 30% HP-β-CD, 14 days at 60° C.) | M4N concentration (stability) (15 mM Phosphate, pH 8, 30% HP-β-CD, 14 days at 60° C.) | M4N concentration (stability) (WFI, 30% HP-β-CD, 14 days at 60° C.)
10.2 mg/mL: M4N concentration (stability) (15 mM Acetate, pH 5, 30% HP-β-CD, 2 days at 60° C.) | M4N concentration (stability) (15 mM Phosphate, pH 9, 30% HP-β-CD, 2 days at 60° C.)
10.6 mg/mL: M4N concentration (stability) (15 mM Acetate, pH 5, 30% HP-β-CD, 0 days at 60° C.) | M4N concentration (stability) (15 mM Phosphate, pH 8, 30% HP-β-CD, 0 days at 60° C.)
slight decrease: change in concentration of M4N solutions (10 mg/mL M4N in HP-β-CD/PEG 300, 15 mM buffers, 14 day incubation at 60° C.)
less than 0.1%: M4N impurities, share of total peak area (14 day incubation at 60° C.)
10.5 mg/mL: M4N concentration (stability) (15 mM Acetate, pH 6, 30% HP-β-CD, 0 days at 60° C.) | M4N concentration (stability) (15 mM Borate, pH 10, 30% HP-β-CD, 0 days at 60° C.) | M4N concentration (stability) (15 mM Borate, pH 11, 30% HP-β-CD, 0 days at 60° C.) | M4N concentration (stability) (15 mM Phosphate, pH 4, 30% HP-β-CD, 0 days at 60° C.) | M4N concentration (stability) (15 mM Phosphate, pH 7, 30% HP-β-CD, 0 days at 60° C.)
10.4 mg/mL: M4N concentration (stability) (15 mM Phosphate, pH 8, 30% HP-β-CD, 2 days at 60° C.) | M4N concentration (stability) (15 mM Phosphate, pH 9, 30% HP-β-CD, 0 days at 60° C.) | M4N concentration (stability) (WFI, 30% HP-β-CD, 0 days at 60° C.)
9.4 mg/mL: M4N concentration (stability) (15 mM Borate, pH 11, 30% HP-β-CD, 14 days at 60° C.)
9.8 mg/mL: M4N concentration (stability) (15 mM Borate, pH 11, 30% HP-β-CD, 6 days at 60° C.) | M4N concentration (stability) (15 mM Phosphate, pH 8, 30% HP-β-CD, 10 days at 60° C.) | M4N concentration (stability) (15 mM Phosphate, pH 9, 30% HP-β-CD, 10 days at 60° C.)
10.3 mg/mL: M4N concentration (stability) (15 mM Borate, pH 11, 30% HP-β-CD, 2 days at 60° C.) | M4N concentration (stability) (15 mM Phosphate, pH 3, 30% HP-β-CD, 0 days at 60° C.) | M4N concentration (stability) (15 mM Phosphate, pH 7, 30% HP-β-CD, 2 days at 60° C.)
9.5 mg/mL: M4N concentration (stability) (15 mM Borate, pH 11, 30% HP-β-CD, 10 days at 60° C.)
Little if any changes: apparent sample pH during the incubation period (14 days at 60° C.)
